ChEMBL document CHEMBL1201862, “PubChem BioAssay data set” (2004)
Activity calls are given as the source filed them.

What was measured:
Phospholipase D1 = Phospholipase D1 (Homo sapiens, UniProt Q13393); test: PLD1 inhibitor potency in cells, dose response (AID 602151); type: functional;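 also: cellular PLD1 assay in Calu-1 cells stimulated with PMA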
Phospholipase D2 = Phospholipase D2 (Homo sapiens, UniProt O14939); test: PLD2 inhibitor potency in cells, dose response (AID 602147); type: functional;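 also: cellular assay in HEK293 cells overexpressing GFP-tagged PLD2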
Caspase-3 = target: T1, Caspase-3 (Homo sapiens, UniProt P42574); type: functional;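 also: Dose-response selectivity test against caspase-3 for candidate inhibitors of sentrin-specific proteases (SENPs)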
T1 sequence (P42574 whole entry): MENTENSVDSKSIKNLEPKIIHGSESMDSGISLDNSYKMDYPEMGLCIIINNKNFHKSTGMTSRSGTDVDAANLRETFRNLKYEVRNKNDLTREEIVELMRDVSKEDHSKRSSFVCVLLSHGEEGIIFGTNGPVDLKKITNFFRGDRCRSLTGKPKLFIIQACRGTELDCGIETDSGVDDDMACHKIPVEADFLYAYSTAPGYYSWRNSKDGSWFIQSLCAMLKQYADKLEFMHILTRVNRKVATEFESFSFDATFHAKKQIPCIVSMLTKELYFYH

HEK293 [1] = test: cells; settings: Homo sapiens
[2] = target: T2, Sentrin-specific protease 8 (Homo sapiens, UniProt Q96LD8); type: functional;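 also: luminescence read-out of SENP8 inhibition, dose-response confirmation following an ultra-high-throughput screen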
T2 sequence (Q96LD8 whole entry): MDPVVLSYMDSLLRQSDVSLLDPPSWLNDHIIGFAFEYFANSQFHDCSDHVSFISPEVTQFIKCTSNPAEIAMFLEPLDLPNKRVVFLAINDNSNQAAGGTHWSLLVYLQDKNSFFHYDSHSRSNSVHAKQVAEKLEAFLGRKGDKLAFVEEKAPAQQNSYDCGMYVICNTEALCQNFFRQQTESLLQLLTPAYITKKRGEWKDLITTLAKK

HEK293 [3] = test: cells; settings: Homo sapiens; remark: listed apart in the source
[4] = target: T3, Sentrin-specific protease 6 (Homo sapiens, UniProt Q9GZR1); type: functional;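 also: Luminescence-based dose-response confirmatory assay of SENP6 inhibition, following up an ultra-high-throughput screen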
T3 sequence (Q9GZR1 whole entry): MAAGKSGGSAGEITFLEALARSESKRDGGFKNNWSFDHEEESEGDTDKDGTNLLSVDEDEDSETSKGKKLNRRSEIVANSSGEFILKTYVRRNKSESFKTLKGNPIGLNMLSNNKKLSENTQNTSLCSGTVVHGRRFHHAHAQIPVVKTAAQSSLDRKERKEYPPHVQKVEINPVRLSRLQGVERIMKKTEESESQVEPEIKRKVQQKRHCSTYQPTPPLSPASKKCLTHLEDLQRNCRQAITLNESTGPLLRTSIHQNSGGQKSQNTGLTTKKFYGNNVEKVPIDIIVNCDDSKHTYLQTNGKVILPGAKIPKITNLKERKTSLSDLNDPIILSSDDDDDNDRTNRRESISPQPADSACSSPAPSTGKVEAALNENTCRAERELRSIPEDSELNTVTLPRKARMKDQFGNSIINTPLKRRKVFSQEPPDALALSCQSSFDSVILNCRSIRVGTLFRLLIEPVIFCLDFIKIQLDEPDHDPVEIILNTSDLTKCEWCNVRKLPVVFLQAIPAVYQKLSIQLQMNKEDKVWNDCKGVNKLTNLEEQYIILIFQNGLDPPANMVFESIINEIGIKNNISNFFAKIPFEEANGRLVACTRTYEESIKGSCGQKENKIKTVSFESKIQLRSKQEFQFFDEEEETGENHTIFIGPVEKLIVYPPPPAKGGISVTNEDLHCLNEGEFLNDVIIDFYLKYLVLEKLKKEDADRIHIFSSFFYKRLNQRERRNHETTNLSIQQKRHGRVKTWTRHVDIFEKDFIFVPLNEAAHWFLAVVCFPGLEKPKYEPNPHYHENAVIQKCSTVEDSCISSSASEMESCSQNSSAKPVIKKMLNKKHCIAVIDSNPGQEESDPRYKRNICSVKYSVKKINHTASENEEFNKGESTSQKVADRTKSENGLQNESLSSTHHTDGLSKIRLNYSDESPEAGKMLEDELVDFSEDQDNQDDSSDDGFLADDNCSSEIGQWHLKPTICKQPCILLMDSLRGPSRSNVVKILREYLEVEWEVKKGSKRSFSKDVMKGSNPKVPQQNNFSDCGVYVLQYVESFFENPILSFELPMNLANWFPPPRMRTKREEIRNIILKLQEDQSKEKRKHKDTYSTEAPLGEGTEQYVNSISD

[5] = target: T4, Sentrin-specific protease 7 (Homo sapiens, UniProt Q9BQF6); type: functional;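 also: Luminescence-based dose-response confirmation of ultra-high-throughput screening hits, measuring inhibition of SENP7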
T4 sequence (Q9BQF6 whole entry): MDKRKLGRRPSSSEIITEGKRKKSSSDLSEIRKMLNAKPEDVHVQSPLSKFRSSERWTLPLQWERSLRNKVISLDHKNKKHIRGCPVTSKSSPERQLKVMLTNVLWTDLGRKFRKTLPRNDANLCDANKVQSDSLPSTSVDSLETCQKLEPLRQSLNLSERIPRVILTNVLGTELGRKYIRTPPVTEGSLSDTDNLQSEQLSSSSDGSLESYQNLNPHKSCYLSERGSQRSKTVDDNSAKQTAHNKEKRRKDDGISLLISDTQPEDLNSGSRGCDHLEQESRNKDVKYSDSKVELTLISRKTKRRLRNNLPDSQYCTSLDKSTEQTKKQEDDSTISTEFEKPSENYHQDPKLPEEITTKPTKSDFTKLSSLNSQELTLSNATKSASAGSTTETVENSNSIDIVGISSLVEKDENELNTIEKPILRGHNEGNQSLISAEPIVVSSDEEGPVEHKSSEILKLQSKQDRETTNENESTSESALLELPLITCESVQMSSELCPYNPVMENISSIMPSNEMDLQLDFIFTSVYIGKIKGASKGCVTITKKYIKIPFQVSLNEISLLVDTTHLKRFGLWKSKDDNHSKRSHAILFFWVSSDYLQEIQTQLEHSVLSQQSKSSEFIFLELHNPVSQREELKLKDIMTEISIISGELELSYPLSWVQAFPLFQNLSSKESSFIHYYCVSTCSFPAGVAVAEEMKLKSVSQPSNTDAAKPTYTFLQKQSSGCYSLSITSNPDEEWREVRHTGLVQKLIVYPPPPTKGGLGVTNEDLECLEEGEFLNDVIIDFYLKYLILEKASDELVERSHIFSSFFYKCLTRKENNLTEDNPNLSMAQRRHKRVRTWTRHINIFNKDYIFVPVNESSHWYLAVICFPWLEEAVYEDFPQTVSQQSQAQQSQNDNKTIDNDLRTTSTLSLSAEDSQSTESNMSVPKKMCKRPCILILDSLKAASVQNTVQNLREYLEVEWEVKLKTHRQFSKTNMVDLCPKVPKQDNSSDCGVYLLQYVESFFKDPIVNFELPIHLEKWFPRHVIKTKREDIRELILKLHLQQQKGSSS

[6] = target: T5, G-protein coupled receptor 35 (Homo sapiens, UniProt Q9HC97); test: SAR Analysis for the identification of Selective Antagonists of ERK1/2 Activity in GPR35-Overexpressing U2OS Cells. [Related pubchem assays: 2079, 2058 ]; type: functional, cell-based
[7] = target: T5, G-protein coupled receptor 35; test: GPR35 antagonists blocking zaprinast-driven arrestin recruitment, primary screen, imaging, U2OS, beta-arrestin-GFP, zaprinast agonist (AID 2058); type: functional;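 also: antagonist potency meaning inhibition of agonist-induced arrestin redistribution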
[8] = target: Beta-2 adrenergic receptor (Homo sapiens, UniProt P07550); test: beta2AR agonists driving receptor internalization, dose response, cell-based, FAP fluorogen, flow cytometry, cherry pick 1 (AID 588763); type: functional
[9] = target: G-protein coupled receptor 55 (Homo sapiens, UniProt Q9Y2T6); test: GPR55 antagonists, SAR follow-up, counter-screen for GPR35 antagonist project, imaging, image-based (AID 2397); type: functional
Hexokinase-1 = Hexokinase-1 (Homo sapiens, UniProt P19367); test: SAR analysis of small molecule inhibitors of hexokinase domain containing I (HKDC1) in the hexokinase 1 selectivity assay. [Related pubchem assays (depositor defined):AID493160, AID493190]; type: functional
Hexokinase HKDC1 = target: T6, Hexokinase HKDC1 (Homo sapiens, UniProt Q2TB90); test: SAR analysis of small molecule inhibitors of hexokinase domain containing I (HKDC1). [Related pubchem assays (depositor defined):AID493160, AID493190]; type: functional
T6 sequence (Q2TB90 whole entry): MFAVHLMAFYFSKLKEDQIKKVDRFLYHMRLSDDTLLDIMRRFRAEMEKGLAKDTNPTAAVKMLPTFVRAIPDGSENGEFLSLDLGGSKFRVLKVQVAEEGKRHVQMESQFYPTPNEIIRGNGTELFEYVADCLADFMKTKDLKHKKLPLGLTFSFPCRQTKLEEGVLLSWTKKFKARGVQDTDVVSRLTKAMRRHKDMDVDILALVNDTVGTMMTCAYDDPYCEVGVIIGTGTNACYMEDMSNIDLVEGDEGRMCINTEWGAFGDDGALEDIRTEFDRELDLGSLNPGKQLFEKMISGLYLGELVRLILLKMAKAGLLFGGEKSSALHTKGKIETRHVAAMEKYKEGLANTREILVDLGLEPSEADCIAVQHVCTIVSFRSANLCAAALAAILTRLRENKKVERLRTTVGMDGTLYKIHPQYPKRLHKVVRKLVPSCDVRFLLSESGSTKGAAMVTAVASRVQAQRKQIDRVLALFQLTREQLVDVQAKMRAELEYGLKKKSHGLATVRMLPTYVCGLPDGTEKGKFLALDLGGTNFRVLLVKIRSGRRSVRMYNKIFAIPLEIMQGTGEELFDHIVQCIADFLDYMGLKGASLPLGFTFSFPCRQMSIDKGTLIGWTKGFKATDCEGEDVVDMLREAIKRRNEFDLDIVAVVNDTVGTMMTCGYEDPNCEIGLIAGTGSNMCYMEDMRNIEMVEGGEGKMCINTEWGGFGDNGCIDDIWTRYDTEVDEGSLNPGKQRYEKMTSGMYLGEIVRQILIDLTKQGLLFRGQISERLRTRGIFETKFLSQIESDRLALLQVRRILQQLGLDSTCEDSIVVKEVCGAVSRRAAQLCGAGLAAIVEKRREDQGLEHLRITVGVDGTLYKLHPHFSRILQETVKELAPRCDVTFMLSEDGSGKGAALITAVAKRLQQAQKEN

[10] = target: T7, Short transient receptor potential channel 4 (Mus musculus, UniProt Q9QUQ5); test: TRPC4 inhibitor concentration-response, dose response, cell-based, HEK293 TRPC4/mu-opioid, DAMGO stimulus, Fluo-4 (AID 492994); type: functional
T7 sequence (Q9QUQ5 whole entry): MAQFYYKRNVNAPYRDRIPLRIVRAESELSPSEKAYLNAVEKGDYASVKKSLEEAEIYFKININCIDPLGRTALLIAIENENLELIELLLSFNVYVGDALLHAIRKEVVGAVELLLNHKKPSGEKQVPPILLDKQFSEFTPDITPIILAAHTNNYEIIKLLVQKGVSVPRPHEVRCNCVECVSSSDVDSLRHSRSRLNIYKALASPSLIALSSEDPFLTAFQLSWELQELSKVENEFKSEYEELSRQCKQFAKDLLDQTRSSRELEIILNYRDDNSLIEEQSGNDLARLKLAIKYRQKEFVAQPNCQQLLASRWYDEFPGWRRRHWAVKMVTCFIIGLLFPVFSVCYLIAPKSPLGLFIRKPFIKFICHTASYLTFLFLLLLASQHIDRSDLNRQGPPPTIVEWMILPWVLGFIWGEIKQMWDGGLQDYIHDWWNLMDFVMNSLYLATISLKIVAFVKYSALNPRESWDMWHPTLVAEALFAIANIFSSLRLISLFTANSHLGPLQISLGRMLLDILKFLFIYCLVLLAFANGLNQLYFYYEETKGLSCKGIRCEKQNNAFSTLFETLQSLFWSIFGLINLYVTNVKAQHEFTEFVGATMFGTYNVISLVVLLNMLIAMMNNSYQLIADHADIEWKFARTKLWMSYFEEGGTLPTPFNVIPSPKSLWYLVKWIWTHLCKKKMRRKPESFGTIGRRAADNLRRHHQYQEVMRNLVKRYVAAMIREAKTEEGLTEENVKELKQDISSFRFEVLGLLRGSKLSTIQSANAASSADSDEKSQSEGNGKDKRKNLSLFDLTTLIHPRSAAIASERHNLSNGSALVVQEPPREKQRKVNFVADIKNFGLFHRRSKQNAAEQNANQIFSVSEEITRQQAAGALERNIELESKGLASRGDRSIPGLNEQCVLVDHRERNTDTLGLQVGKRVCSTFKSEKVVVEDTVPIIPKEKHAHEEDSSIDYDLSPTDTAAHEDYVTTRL

[11] = target: Short transient receptor potential channel 6 (Mus musculus, UniProt Q61143); test: TRPC6 inhibition potency of TRPC4 inhibitor analogs, dose response, selectivity assay for selective TRPC4 inhibitor project, HEK293 cells, membrane potential dye, IC50 (AID 492987); type: functional, cell-based
Escherichia coli = test: microbe, parasite or virus in culture

T5 sequence (Q9HC97 whole entry): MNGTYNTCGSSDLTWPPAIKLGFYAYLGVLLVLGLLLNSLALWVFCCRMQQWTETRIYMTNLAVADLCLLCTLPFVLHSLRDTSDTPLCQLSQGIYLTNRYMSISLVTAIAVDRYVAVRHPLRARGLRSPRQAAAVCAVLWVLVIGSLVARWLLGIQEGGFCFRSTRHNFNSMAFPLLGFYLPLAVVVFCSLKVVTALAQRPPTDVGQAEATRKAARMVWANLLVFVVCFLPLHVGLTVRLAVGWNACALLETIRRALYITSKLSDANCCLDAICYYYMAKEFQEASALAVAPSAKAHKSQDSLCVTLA
Beta-2 adrenergic receptor, sequence (P07550 whole entry): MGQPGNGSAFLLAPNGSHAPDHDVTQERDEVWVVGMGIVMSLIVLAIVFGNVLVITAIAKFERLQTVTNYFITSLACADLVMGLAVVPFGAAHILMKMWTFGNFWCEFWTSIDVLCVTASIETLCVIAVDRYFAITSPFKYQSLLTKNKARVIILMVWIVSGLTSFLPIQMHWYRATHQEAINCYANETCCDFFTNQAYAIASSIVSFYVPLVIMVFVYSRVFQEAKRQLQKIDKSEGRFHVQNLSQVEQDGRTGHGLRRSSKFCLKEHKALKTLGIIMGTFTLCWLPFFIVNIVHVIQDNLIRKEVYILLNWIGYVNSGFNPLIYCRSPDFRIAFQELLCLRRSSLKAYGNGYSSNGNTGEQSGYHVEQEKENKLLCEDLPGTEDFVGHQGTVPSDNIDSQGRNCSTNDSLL
Phospholipase D1, sequence (Q13393 whole entry): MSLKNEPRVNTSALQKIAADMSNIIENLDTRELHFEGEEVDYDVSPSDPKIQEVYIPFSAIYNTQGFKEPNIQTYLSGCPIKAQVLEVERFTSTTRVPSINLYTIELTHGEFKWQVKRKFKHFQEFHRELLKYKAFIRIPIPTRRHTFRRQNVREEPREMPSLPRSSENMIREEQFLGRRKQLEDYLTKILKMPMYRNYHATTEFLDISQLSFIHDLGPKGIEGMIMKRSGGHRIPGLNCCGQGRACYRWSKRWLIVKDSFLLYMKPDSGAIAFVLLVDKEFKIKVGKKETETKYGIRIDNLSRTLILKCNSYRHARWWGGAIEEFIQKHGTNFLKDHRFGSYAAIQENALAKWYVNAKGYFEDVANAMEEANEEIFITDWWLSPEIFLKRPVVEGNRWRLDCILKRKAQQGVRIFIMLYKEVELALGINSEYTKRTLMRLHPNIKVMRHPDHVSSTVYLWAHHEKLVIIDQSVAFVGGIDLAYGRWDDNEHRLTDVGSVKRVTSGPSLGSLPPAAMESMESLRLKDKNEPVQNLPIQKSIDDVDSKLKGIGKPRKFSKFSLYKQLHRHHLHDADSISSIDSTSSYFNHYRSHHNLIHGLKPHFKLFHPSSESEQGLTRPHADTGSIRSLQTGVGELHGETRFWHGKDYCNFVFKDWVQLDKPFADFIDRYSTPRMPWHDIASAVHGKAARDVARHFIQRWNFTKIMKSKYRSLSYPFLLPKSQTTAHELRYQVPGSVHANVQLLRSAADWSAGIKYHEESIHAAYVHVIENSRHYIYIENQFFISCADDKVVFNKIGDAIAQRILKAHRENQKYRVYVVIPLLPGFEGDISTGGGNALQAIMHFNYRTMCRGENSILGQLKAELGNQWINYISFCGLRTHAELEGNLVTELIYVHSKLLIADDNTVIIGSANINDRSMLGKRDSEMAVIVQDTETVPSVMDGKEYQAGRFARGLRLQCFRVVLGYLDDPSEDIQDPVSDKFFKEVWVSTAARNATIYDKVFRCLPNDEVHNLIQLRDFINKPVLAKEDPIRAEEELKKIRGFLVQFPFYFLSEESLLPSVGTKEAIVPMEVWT
Short transient receptor potential channel 6, sequence (Q61143 whole entry): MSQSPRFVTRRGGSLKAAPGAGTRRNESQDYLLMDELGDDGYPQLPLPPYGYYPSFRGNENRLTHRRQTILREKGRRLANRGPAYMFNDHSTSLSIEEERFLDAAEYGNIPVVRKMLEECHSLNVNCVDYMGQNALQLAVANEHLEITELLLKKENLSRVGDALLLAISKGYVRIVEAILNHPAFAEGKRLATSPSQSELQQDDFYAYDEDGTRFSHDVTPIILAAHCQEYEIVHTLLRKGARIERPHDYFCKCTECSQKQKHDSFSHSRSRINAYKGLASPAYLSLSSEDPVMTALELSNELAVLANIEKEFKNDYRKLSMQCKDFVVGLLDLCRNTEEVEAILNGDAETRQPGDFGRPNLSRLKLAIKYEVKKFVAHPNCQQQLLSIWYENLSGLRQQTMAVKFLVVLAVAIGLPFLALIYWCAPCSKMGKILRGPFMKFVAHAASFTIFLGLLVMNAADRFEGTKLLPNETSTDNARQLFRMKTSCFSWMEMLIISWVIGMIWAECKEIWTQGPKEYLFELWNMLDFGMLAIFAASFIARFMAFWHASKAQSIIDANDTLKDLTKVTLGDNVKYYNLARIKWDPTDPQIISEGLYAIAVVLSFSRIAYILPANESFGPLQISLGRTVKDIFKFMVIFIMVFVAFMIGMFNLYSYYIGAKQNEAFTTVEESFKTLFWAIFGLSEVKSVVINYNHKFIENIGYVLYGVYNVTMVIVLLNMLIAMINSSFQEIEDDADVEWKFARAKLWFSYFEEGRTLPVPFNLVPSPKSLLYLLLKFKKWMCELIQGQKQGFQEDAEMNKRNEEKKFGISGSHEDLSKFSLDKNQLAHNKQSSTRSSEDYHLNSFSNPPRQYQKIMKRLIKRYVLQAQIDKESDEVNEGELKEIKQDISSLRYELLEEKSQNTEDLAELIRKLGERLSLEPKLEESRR
G-protein coupled receptor 55, sequence (Q9Y2T6 whole entry, the tested form may be a part): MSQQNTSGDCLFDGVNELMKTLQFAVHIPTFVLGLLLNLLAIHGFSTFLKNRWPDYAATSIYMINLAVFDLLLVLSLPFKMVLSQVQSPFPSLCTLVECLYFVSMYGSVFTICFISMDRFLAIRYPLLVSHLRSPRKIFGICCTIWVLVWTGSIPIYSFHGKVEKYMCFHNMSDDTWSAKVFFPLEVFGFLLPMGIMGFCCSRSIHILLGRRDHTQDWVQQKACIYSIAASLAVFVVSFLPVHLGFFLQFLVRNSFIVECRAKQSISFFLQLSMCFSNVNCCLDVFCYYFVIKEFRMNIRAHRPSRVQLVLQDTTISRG
Hexokinase-1, sequence (P19367 whole entry, the tested form may be a part): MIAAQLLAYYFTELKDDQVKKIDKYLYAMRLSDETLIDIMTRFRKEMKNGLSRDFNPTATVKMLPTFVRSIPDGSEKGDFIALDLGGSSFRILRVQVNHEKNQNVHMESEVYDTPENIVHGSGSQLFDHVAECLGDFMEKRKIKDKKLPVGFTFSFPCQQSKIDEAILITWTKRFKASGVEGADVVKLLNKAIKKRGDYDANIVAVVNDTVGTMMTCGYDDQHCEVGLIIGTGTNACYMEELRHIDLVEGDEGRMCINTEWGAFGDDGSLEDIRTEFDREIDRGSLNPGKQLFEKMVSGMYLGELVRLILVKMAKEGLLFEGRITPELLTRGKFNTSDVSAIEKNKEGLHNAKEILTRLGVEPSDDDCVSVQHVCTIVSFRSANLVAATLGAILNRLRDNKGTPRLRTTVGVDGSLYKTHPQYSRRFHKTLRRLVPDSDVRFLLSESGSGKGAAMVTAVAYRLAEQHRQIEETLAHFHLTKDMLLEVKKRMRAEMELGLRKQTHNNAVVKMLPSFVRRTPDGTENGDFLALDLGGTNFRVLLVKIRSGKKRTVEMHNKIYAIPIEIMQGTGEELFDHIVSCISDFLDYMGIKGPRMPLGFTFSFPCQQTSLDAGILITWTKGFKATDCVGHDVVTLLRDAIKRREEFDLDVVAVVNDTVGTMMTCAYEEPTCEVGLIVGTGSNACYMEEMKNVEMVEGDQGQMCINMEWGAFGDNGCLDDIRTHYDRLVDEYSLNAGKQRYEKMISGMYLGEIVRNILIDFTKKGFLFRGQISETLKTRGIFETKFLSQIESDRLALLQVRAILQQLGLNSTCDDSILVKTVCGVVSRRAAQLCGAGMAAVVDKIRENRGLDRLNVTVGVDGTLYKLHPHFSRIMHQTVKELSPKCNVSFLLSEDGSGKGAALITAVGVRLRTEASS
Phospholipase D2, sequence (O14939 whole entry): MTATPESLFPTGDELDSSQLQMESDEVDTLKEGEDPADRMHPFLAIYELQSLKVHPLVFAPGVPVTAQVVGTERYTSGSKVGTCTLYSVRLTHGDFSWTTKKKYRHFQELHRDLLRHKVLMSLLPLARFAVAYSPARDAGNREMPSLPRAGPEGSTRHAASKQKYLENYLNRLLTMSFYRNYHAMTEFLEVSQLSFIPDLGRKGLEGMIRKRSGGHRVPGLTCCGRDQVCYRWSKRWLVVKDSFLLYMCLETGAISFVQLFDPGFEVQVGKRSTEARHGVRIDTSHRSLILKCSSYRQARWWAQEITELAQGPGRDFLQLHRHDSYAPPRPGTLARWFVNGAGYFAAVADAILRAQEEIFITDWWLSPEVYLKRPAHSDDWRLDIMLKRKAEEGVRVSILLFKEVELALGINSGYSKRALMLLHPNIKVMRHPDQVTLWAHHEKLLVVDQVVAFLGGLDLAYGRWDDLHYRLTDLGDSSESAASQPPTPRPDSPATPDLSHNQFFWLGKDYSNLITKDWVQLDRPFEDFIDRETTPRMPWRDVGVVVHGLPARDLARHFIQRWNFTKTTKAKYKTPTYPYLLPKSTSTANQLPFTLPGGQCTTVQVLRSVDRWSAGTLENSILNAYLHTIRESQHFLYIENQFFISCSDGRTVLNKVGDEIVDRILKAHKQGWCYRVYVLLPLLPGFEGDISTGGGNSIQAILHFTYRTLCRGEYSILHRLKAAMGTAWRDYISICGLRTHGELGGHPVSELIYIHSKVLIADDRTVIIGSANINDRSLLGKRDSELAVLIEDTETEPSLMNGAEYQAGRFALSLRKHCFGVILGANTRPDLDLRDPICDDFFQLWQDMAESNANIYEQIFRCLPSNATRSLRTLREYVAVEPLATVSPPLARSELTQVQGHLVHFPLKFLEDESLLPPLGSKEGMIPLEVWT

O=C(NCCN1CCC2(CC1)C(=O)NCN2c1cccc(F)c1)c1ccc(F)nc1
IC50 (Phospholipase D1): 17 µM (active)
IC50 (Phospholipase D2): 0.385 µM (active)

COc1cc(C#Cc2ccc3cc(CCCO)oc(=O)c3c2)cc(OC)c1
IC50 (Caspase-3): 21 µM (active)
EC50 (HEK293 [1]): > 59.6 µM (inactive)
IC50 [2]: 10.6 µM (active)
EC50 (HEK293 [3]): > 59.6 µM (inactive)
IC50 [4]: 7.16 µM (active)
IC50 [5]: 2.81 µM (active)

O=C(Nc1ccc2nc(SCc3ccc(Cl)cc3)sc2c1)c1ccccc1C(=O)N1CCOCC1
IC50 [6]: 16.5 µM (not active)
IC50 [7]: 0.768 µM (active)
EC50 [8]: 1.74 µM (active)
IC50 [9]: > 32 µM (inactive)

O=c1c2ccccc2nc(/C=C/c2cccc(Br)c2)n1Cc1ccccc1
IC50 (Hexokinase-1): > 80 µM (inactive)
IC50 (Hexokinase HKDC1): > 80 µM (inactive)

Cc1cc(N2CCC(N3CCOCC3)CC2)nc2ccccc12
IC50 [10]: 31.9 µM (active)
IC50 [11]: 16.9 µM (active)

CCOC(=O)c1cc(C)sc1NC(=O)C(c1ccccc1)c1ccccc1
AC50 (Escherichia coli): 123 µM (active)
